Laboratory results published in patent US20110165092A1, “COSMETIC AND/OR DERMATOLOGICAL COMPOSITION” (Universite de la Mediterranee, Aix-Marseille II, priority 2008, published 2011).

Experiments:
progeria patient cells = assay: Immunocytochemistry, nuclear morphology of progeria patient cells; format: cell-based, human; settings: abnormal nuclei 48 hours after start, FIG. 10d
From the text: The dermal fibroblasts of a control subject (GM00038) and of patients afflicted with progeria and carriers of the G608G mutation (AG11498 and AG01972) were obtained from the Coriell Cell Repository. The HeLa cells came from the American Type Culture Collection. The cells were cultivated in DMEM (Gibco) supplemented with 10% FBS (Gibco) and 1% antibiotic-antimycotic (Gibco). The fibroblasts came from 12-day old mice tails (Varela et al., 2005). The concentration and the length of the treatment with the statin and the aminobiphosphonate are indicated in the legend to the figures. […] The percentage of abnormal nuclei was measured 48 hours after the start of the treatment. […]
The dilution of primary antibodies was 1:100 for the polyclonal goat anti-prelamin A antibody Sc-6214, Santa Cruz Biotechnologies), 1:40 for the anti-lamin A/C antibody (4A7 supplied by G. Morris), 1:200 for the anti-calreticulin rabbit antibody (Stressgen) and 1:100 for the anti-lamin B1 antibody (Abcam). […] Digital images were recorded with a Leica DMR microscope equipped with a CoolSnap camera or with a Leica TCS SP5 confocal microscope. […] More than 100 nuclei were analysed in control fibroblasts for each of the treatments. The number of cell nuclei of patients afflicted with progeria which was analysed was 250 (passage 8), 198 (passage 13) and 150 (passage 20). […]

Zmpste24−/− cells = assay: Nuclear morphology of Zmpste24−/− mice cells in culture; format: cell-based, mouse; settings: pravastatin 1 μM and zoledronate 1 μM, alone or in combination, FIG. 12a
From the text: (§1) The dermal fibroblasts of a control subject (GM00038) and of patients afflicted with progeria and carriers of the G608G mutation (AG11498 and AG01972) were obtained from the Coriell Cell Repository. The HeLa cells came from the American Type Culture Collection. The cells were cultivated in DMEM (Gibco) supplemented with 10% FBS (Gibco) and 1% antibiotic-antimycotic (Gibco). The fibroblasts came from 12-day old mice tails (Varela et al., 2005). The concentration and the length of the treatment with the statin and the aminobiphosphonate are indicated in the legend to the figures. During the combined treatment with statin+aminobiphosphonate in the presence of farnesol and/or geranylgeraniol, […] were added to the culture medium with increasing concentrations of farnesol and/or geranylgeraniol. The percentage of abnormal nuclei was measured 48 hours after the start of the treatment.
(§2) Quantification of the effect of pravastatin (1 μM) and zoledronate (1 μM) combined or uncombined on the nuclear morphology of Zmpste24^−/− mice (a) and control mice (b) cells in culture, in the presence of farnesol, geranylgeraniol or both molecules.

control fibroblasts = assay: Nuclear morphology of control mice cells in culture; format: cell-based, mouse; settings: FIG. 12b
From the text: as §1, §2

Zmpste24−/− mice = assay: Progeroid phenotype of Zmpste24−/− mice (Example 9); format: in vivo, mouse; settings: daily treatment, FIG. 15
Experimental: Pravastatin (100 mg/kg/day) and zoledronate (100 mg/kg/day) diluted in PBS were administered to the mice every day.
The difference between the various groups of treated or untreated mice and cells was analysed using the t-test. The calculations were made with the Microsoft Excel program. The data was expressed as a mean±standard error of the mean (SEM).

healthy cells = assay: Immunohistochemistry dose- and time-response on healthy control cells; format: cell-based, human; settings: 100 μM pravastatin for 12 hours, 20 μM zoledronate for 6 hours, FIG. 3; for rate of prelamin A produced in treated healthy cells: in combination or singly
Experimental: Labtech style culture wells (Nunc, Ref. 177399) are seeded, at the rate of 5×10^4 cells per well.
The complete culture medium is supplemented with the treatment or treatments (statin, NBP, both), and the cells are cultivated for the ad hoc time.
The cells are fixed in a 4% paraformaldehyde solution (in PBS) for 10 minutes at ambient temperature.
The primary antibody is diluted to 1/100th in 50 μl of incubating solution and placed in contact with the cells for 1 hour at ambient temperature in a moisture chamber.
The primary antibodies used are of 2 types: • Anti-lamin A/C mouse (N-terminal side), clone 4A7, donation from G. Morris (Oswestry, UK) • Anti-prelamin A goat (15 aa C-terminal end), product SC6214, Santa Cruz Biotechnology, Inc. • 3 rinsings of 15 min each are carried out in 50 μl of 1× PBS.
The cells are immersed in a drop of VectaShield (Vector), covered with a cover glass and observed under a fluorescence microscope (Leica DMR, Leica Microsystems), equipped with a coolSNAP camera system (Princeton).
Dose-response and time-response curves made it possible to determine maximum effectiveness by measuring 2 parameters on healthy control cells, on the one hand, and then on HGPS patient cells.

## CC(C)=CCCC(C)=CCCC(C)=CCO [farnesol]
Progeria patient cells
  influence on the effect of the pravastatin+zoledronate treatment on nuclear morphology: abolishes the effect of the pravastatin+zoledronate treatment
Zmpste24−/− cells
  influence on the effect of the pravastatin+zoledronate treatment on nuclear morphology: abolish the effect of the pravastatin+zoledronate treatment on the nuclear morphology
Control fibroblasts
  effect on nuclear morphology of control fibroblasts: Neither farnesol nor geranylgeraniol produces any effect on control fibroblasts

## CC(C)=CCC/C(C)=C/CC/C(C)=C/CC/C(C)=C/CO [geranylgeraniol]
Progeria patient cells
  influence on the effect of the pravastatin+zoledronate treatment on nuclear morphology: also blocks the effect of the treatment
Zmpste24−/− cells
  influence on the effect of the pravastatin+zoledronate treatment on nuclear morphology: abolish the effect of the pravastatin+zoledronate treatment on the nuclear morphology
Control fibroblasts
  effect on nuclear morphology of control fibroblasts: Neither farnesol nor geranylgeraniol produces any effect on control fibroblasts

## O=P(O)(O)C(O)(Cn1ccnc1)P(=O)(O)O [zoledronate, (1-hydroxy-2-imidazol-1-yl-1-phosphono-ethyl)phosphonic acid]
Zmpste24−/− mice
  lifespan of the Zmpste24−/− mice, each drug separately: does not improve the lifespan
Healthy cells
  rate of prelamin A produced in treated healthy cells: 15%

## CC[C@H](C)C(=O)O[C@H]1C[C@H](O)C=C2C=C[C@H](C)[C@H](CC[C@@H](O)C[C@@H](O)CC(=O)O)[C@H]21 [pravastatin]
Healthy cells
  rate of deformed nuclei (a sign of toxicity in healthy cells): approximately 12%
  rate of prelamin A produced in treated healthy cells: 25%
